US20090076092A1, “METHOD FOR DISRUPTING REPRODUCTIVE PERFORMANCE OF ARTHROPODS” (priority 2006, published 2009)

Tests used:
beet armyworm = assay: Preliminary dose-response study on beet armyworm; type: in vivo, Spodoptera exigua; details: beet armyworm adults; estimated from the dose-response curve (12.5, 25, 50 and 100 ppm)
Text: The sub-lethal concentrations or doses used in the various tests for the specific pest species and populations tested in the context of the present invention were estimated from multiple-rate, dose-finding tests to determine the control rates and activity break rates. […] Therefore, depending on the target pest species, either the LC50 or a suitable concentration between LC50 and LC20 was selected as the sub-lethal dose. The specific procedures used to select the respective doses are described in each Test.
(§1) Sub-lethal concentrations of Compound 1 on beet armyworm were defined based on a preliminary study using rates of 12.5, 25, 50 and 100 ppm.

[1] = system: cotton bollworm (Helicoverpa armigera Hübner); assay: Test H: eggs laid and hatched by treated cotton bollworm adults; type: in vivo; details: for No. of eggs hatched / No. of eggs laid: total; for No. of eggs hatched: counted daily for 10 DAT; for No. of eggs laid: counted daily for about 10 days
Text: For evaluating the reproductive performance effects on cotton bollworm (Helicoverpa armigera Hübner), each test unit consisted of one pair of adult (female and male) Helicoverpa armigera moths. To obtain the adult moths, male and female pupae of approximately the same age (±1 day) were placed in separate containers until adults emerged. After emergence, adult moths of about the same age (±1 day) were selected for testing. Ten adult moths of the same sex were placed in a cage containing a potted cotton plant in a […] container covered with sleeve of fine-mesh polyester material. Then the cages were sprayed over the top with designated treatments of the test compounds using a CO2 sprayer fitted with a flat fan nozzle, calibrated to deliver about 200 mL (500 L/ha) of spray at a spray pressure of 207 kPa. The spray nozzle was placed 60 cm above the top of the cages.
Sub-lethal rates of Compound 1 on cotton bollworm were estimated based on a preliminary dose-response curve using rates of 10, 25, 50, 80 and 100 ppm. […] Three treatments consisted of test solutions containing Compound 1 at 10, 20 and 30 ppm as well as a control sprayed with water without test compound.
The treated adult moths were transferred individually into a clean container made of a clear plastic cup covered with cloth and supplied with a cotton wick soaked in 10% sucrose solution as adult diet source. Each treatment used 10 adult females and 10 adult males (i.e. 10 replicates per treatment). One day after treatment, a pair of treated adults (male and female) were placed together in a cage made of a 300 mL clear plastic cup with screened cloth cover and containing a source of adult diet, allowing the moths to copulate. Each pair of moths was transferred to a new cup daily. The number of eggs laid was counted daily for about 10 days (which is the period during which female moths typically produce viable eggs) and totaled. To evaluate the viability of eggs, the copulation cages containing eggs were stored in a growth chamber at 24-27° C. with 14 hours of light per day and 70% relative humidity.

[2] = system: beet armyworm (Spodoptera exigua); assay: Test F: oviposition and egg hatch of treated beet armyworm adults; type: in vivo; details: for % of reduction: oviposition versus control; for No. neonates: total from successful egg hatch
Text: For evaluating the reproductive performance effects on beet armyworm (Spodoptera exigua), each test unit consisted of one pair of adult (female and male) Spodoptera exigua moths. To obtain the adult moths, pupae of approximately the same age (±1 day) were sexed and placed in individual containers until adults emerged. After emergence, the test insects were placed in a meshed cage.
as §1
The caged adults were sprayed with test solutions of the designated treatments using a compressed air-propelled (moving) belt sprayer calibrated at 0.7 m/sec (to deliver a flow rate was ca. 5.5 mL/sec), at 207 kPa, using nozzle 8001E Tee Jet flat fan spray nozzle positioned 18 cm above the test units. Each treatment had 12 replicates (i.e. 12 adult females and 12 adult males were used per treatment).
One day after treatment, a treated male and female (one each) were placed in a cage made from a 300 mL clear plastic cup covered with screened cloth and allowed to copulate. A cotton wick/plug soaked with 10% sucrose solution was supplied in each cage as a diet source.
The number of eggs laid and number of eggs hatched were counted at 3, 4, 5 and 6 days after treatment (DAT), which represented the typical period in which female moths actively produce viable eggs. The pair of moths was transferred to a new cage after each evaluation. To evaluate the number of egg hatched, the copulation cages containing eggs were saved and maintained in a growth chamber at 27° C., 50% relative humidity and 16 hours of light per day.
The raw data were analyzed using Fisher's LSD tests for means separation. […] The percent of reduction was derived by dividing the number of eggs from each treatment by the number of eggs from the control, subtracting the quotient from 1, and then multiplying by 100%.

CNC(=O)c1cc(Cl)cc(C)c1NC(=O)c1cc(Br)nn1-c1ncccc1Cl [Compound 1, 3-bromo-N-[4-chloro-2-methyl-6-[(methylamino)carbonyl]phenyl]-1-(3-chloro-2-pyridinyl)-1H-pyrazole-5-carboxamide]
LC20 (beet armyworm): 12.5 ppm | LC50 (beet armyworm): 20 ppm | LC80 (beet armyworm): 31 ppm | number of eggs hatched as compared to controls ([1]; 10, 20 and 30 ppm): progressively substantially decrease the number of eggs hatched | number of eggs laid as compared to controls ([1]; 10, 20 and 30 ppm): did not consistently reduce the number of eggs laid | No. of eggs hatched ([1]; 10 ppm): 977 | No. of eggs laid ([1]; 10 ppm): 3412 | No. of eggs hatched ([1]; 20 ppm): 778 | No. of eggs laid ([1]; 20 ppm): 1180 | No. of eggs hatched ([1]; 30 ppm): 84 | No. of eggs laid ([1]; 30 ppm): 4920 | % hatched ([2]; 12.5 ppm, 3 DAT): 83% | No. eggs ([2]; 12.5 ppm, 3 DAT): 782 b | % of reduction ([2]; 12.5 ppm, 3 DAT): 66% | No. neonates ([2]; 12.5 ppm, 3 DAT): 647 b | % hatched ([2]; 12.5 ppm, 4 DAT): 82% | No. eggs ([2]; 12.5 ppm, 4 DAT): 315 b | % of reduction ([2]; 12.5 ppm, 4 DAT): 66% | No. neonates ([2]; 12.5 ppm, 4 DAT): 257 b | % hatched ([2]; 12.5 ppm, 5 DAT): 60% | No. eggs ([2]; 12.5 ppm, 5 DAT): 256 b | % of reduction ([2]; 12.5 ppm, 5 DAT): 77% | No. neonates ([2]; 12.5 ppm, 5 DAT): 154 b | % hatched ([2]; 12.5 ppm, 6 DAT): 41% | No. eggs ([2]; 12.5 ppm, 6 DAT): 219 b | % of reduction ([2]; 12.5 ppm, 6 DAT): 73% | No. neonates ([2]; 12.5 ppm, 6 DAT): 90 b | % hatched ([2]; 20 ppm, 3 DAT): 31% | No. eggs ([2]; 20 ppm, 3 DAT): 208 b | % of reduction ([2]; 20 ppm, 3 DAT): 91% | No. neonates ([2]; 20 ppm, 3 DAT): 65 b | % hatched ([2]; 20 ppm, 4 DAT): 0% | No. eggs ([2]; 20 ppm, 4 DAT): 134 bc | % of reduction ([2]; 20 ppm, 4 DAT): 91% | No. neonates ([2]; 20 ppm, 4 DAT): 0 b | % hatched ([2]; 20 ppm, 5 DAT): 0% | No. eggs ([2]; 20 ppm, 5 DAT): 132 b | % of reduction ([2]; 20 ppm, 5 DAT): 89% | No. neonates ([2]; 20 ppm, 5 DAT): 0 b | % hatched ([2]; 20 ppm, 6 DAT): 0% | No. eggs ([2]; 20 ppm, 6 DAT): 109 b | % of reduction ([2]; 20 ppm, 6 DAT): 87% | No. neonates ([2]; 20 ppm, 6 DAT): 0 b | % hatched ([2]; 31 ppm, 3 DAT): 0% | No. eggs ([2]; 31 ppm, 3 DAT): 61 b | % of reduction ([2]; 31 ppm, 3 DAT): 97% | No. neonates ([2]; 31 ppm, 3 DAT): 0 b | % hatched ([2]; 31 ppm, 4 DAT): 0% | No. eggs ([2]; 31 ppm, 4 DAT): 29 c | % of reduction ([2]; 31 ppm, 4 DAT): 97% | No. neonates ([2]; 31 ppm, 4 DAT): 0 b | % hatched ([2]; 31 ppm, 5 DAT): 0% | No. eggs ([2]; 31 ppm, 5 DAT): 91 b | % of reduction ([2]; 31 ppm, 5 DAT): 92% | No. neonates ([2]; 31 ppm, 5 DAT): 0 b | % hatched ([2]; 31 ppm, 6 DAT): 0% | No. eggs ([2]; 31 ppm, 6 DAT): 108 b | % of reduction ([2]; 31 ppm, 6 DAT): 87% | No. neonates ([2]; 31 ppm, 6 DAT): 0 b | number of eggs (fecundity) and number of neonates (fertility) versus control ([2]; all the tested rates (12.5, 20, 31 ppm), all the observation dates): significant reductions
